Results from PubChem BioAssay (NCI).
“And” between values parts separate entries of the source, which are not always exact repeats. Equal entries are not always repeated.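 The compound was tested at five concentrations on cells cultured in 96-well plates, with a 48-hour exposure period. Here, GI50 denotes the concentration required for 50% inhibition of growth. TGI: concentration producing complete growth inhibition.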

Legend:
Assay in all cases: NCI anticancer screen, dose series, 48 h
NCI-H460 lung = tested on: NCI-H460 lung
MDA-MB-435 = tested on: MDA-MB-435
KM12 colon = tested on: KM12 colon
NCI-H23 lung = tested on: NCI-H23 lung
UO-31 renal = tested on: UO-31 renal
COLO 205 colon = tested on: COLO 205 colon
RPMI-8226 leukemia = tested on: RPMI-8226 leukemia
SK-OV-3 ovarian = tested on: SK-OV-3 ovarian
K-562 leukemia = tested on: K-562 leukemia
OVCAR-5 ovarian = tested on: OVCAR-5 ovarian

SMILES	GI50 (NCI-H460 lung)	TGI (NCI-H460 lung) [µM]	GI50 (MDA-MB-435)	TGI (MDA-MB-435)	GI50 (KM12 colon)	TGI (KM12 colon)	GI50 (NCI-H23 lung)	TGI (NCI-H23 lung)	GI50 (UO-31 renal)	TGI (UO-31 renal) [µM]	GI50 (COLO 205 colon) [µM]	TGI (COLO 205 colon) [µM]	GI50 (RPMI-8226 leukemia)	TGI (RPMI-8226 leukemia)	GI50 (SK-OV-3 ovarian)	TGI (SK-OV-3 ovarian)	GI50 (K-562 leukemia)	TGI (K-562 leukemia) [µM]	GI50 (OVCAR-5 ovarian)	TGI (OVCAR-5 ovarian) [µM]
C[C@@]1(C(=O)O)CCC[C@]2(C)C1CC[C@@]13C[C@@](O)(CC[C@]12O)[C@@]1(CO1)C3 (some centres not stated)	> 100 µM	> 100	> 100 µM	> 100 µM	> 100 µM	> 100 µM	> 100 µM	> 100 µM	> 100 µM	> 100	> 100	> 100	> 100 µM	> 100 µM	> 100 µM	> 100 µM	> 100 µM	> 100	> 100 µM	> 100
CC(CC(=O)N1C(=O)C(C)(C)[C@@H](O)[C@H]1CC(C)C(Cl)(Cl)Cl)C(Cl)(Cl)Cl (some centres not stated)	–	> 100	–	–	–	> 100 µM	–	–	–	> 100	–	> 100	–	> 100 µM	–	> 100 µM	–	> 100	–	–
COc1cc(-c2nccc3cc(OC)c(OC)cc23)ccc1O	–	> 100	–	–	–	> 100 µM	–	> 100 µM	–	> 100	–	> 100	–	> 100 µM	–	> 100 µM	–	> 100	–	> 100
Cc1n[nH]c(=S)n(C)c1=S	–	> 100	–	–	–	–	–	> 100 µM	–	> 100	–	> 100	–	> 100 µM	–	> 100 µM	–	> 100	–	> 100
CCC[CH2][Sn]([CH2]CCC)([O]c1cccc2cccnc12)[O]c1cccc2cccnc12	0.382 µM	1.17	–	–	–	–	0.169 µM	0.52 µM	0.265 µM	0.528	0.482	1.7	–	–	1.91 µM	3.33 µM	0.0973 µM	0.523	–	–
CN(C)CCN1C(=O)c2cccc3cc([N+](=O)[O-])cc(c23)C1=O	–	0.384	–	4.66 µM	–	4.28 µM	–	1.24 µM	–	–	–	9.56	–	10.2 µM	–	0.806 µM	–	26.5	–	5.24
CCOC(=O)C(=O)Nc1nc2c(OCC)cccc2s1	–	> 100	–	–	–	> 100 µM	–	> 100 µM	–	> 100	–	> 100	–	> 100 µM	–	> 100 µM	–	> 100	–	> 100
O=C1C(Cl)=C(Nc2ccc(Nc3ccccc3)c(NC3=C(Cl)C(=O)c4ccccc4C3=O)c2)C(=O)c2ccccc21	3.35 µM	13	25 µM	> 100 µM	–	–	19.6 µM	> 100 µM	1.35 µM	7.71	–	–	3.33 µM	> 100 µM	–	–	–	–	24 µM	66.8
Cc1ccc(Nc2nccc(N(C)c3ccc4c(C)n(C)nc4c3)n2)cc1S(N)(=O)=O	4.48 µM and 2.76 µM and 6.34 µM	> 100	3.93 µM and 0.758 µM and 6.37 µM	> 100 µM and > 10 µM and 34.4 µM	5.01 µM and 2.6 µM and 5.56 µM	> 100 µM and > 10 µM and 27 µM	4.03 µM and 2.92 µM and 6.49 µM	> 100 µM and > 10 µM and 93.1 µM	3.13 µM and 0.539 µM and 4.67 µM	> 100	–	–	10.8 µM and 2.61 µM and 6.49 µM	> 100 µM and > 10 µM and 31.6 µM	2.93 µM and 4.9 µM and 4.24 µM	29.6 µM and > 10 µM and > 100 µM	3.05 µM and 0.454 µM and 4.21 µM	> 100	1.43 µM and 6.49 µM	> 100
COc1cc(/C=C(\NC(=O)c2ccccc2)c2nc3ccc4c(c3[nH]2)C(=O)c2ccccc2C4=O)cc(OC)c1OC	–	–	–	–	–	> 100 µM	–	> 100 µM	–	13.5	–	> 100	–	> 100 µM	–	95.6 µM	–	> 100	–	> 100
CC1CCN(Cc2ccc(NC(=O)c3cc4ccc5cccnc5c4[nH]3)cc2)CC1	4.16 µM	28.1	1.99 µM	4.24 µM	5.31 µM	35.8 µM	14.4 µM	37.7 µM	2.05 µM	8.18	–	–	2.58 µM	6.99 µM	6.98 µM	42.5 µM	2.53 µM	9.07	11.3 µM	35.3
O=S(=O)(CCN1CCOCC1)Nc1cc(-c2ccc3ncnc(Nc4ccc(F)c(Cl)c4)c3c2)cnc1Cl	1.56 µM	19.6	0.712 µM	10.3 µM	2.64 µM	24 µM	1.02 µM	> 100 µM	0.267 µM	2.13	–	–	–	–	0.286 µM	1.94 µM	3.27 µM	> 100	0.492 µM	> 100
COc1ccc(/C=C2\CN(C(=O)C(Cl)Cl)C/C(=C\c3ccc(OC)cc3)C2=O)cc1	–	–	–	–	0.332 µM	1.16 µM	1.56 µM	4 µM	1.33 µM	2.61	–	–	–	–	4.2 µM	> 100 µM	0.343 µM	> 100	–	–
NC(=NCc1ccccc1)C(N=Nc1ccccc1)C(=O)NCc1ccccc1 (configuration not stated)	2.37 µM	6.18	5.51 µM	25.5 µM	2.04 µM	4.65 µM	5 µM	21.9 µM	5.87 µM	29.1	14.8	37.2	9.31 µM	> 100 µM	20.1 µM	47.7 µM	–	–	18 µM	44.7
N#Cc1c(NCc2ccccc2)nc(NCc2ccccc2)c(C#N)c1-c1ccc(O)cc1	21.2 µM	53.6	25.2 µM	69.8 µM	16.8 µM	59.7 µM	45.3 µM	> 100 µM	18.6 µM	68.5	36.3	> 100	21.9 µM	> 100 µM	34.5 µM	> 100 µM	–	–	60.3 µM	> 100
COc1cc2c3cc1Oc1c(OC)c(OC)cc4c1C(=NCC4)Cc1ccc(cc1)Oc1cc(ccc1O)C[C@H]3N(C)CC2	–	39.9	–	37.3 µM	–	29.8 µM	–	44 µM	–	–	–	26.3	–	47.5 µM	–	> 100 µM	–	74.1	–	> 100
O=S(=O)([O-])c1ccc(N=Cc2ccccc2[O-])cc1.O=S(=O)([O-])c1ccc(N=Cc2ccccc2[O-])cc1.[Co+2]	–	–	–	–	> 100 µM	> 100 µM	> 100 µM	> 100 µM	69.3 µM	> 100	> 100	> 100	96.8 µM	> 100 µM	36.6 µM	> 100 µM	> 100 µM	> 100	> 100 µM	> 100
